Results reported in patent US12503471B2, “Triazatricycle compounds for the treatment of autoimmune disease” (Hoffmann-La Roche Inc., priority 2019, dated 2025).

Experiment: Human microsomal stability assay
Type: in vitro ADME
Conditions: human liver microsomes, 1 μM test compound, 0.5 mg/mL protein, 37° C., pH 7.4
Experimental: Human Microsomal Stability Assay
Human liver microsomes (Cat.NO.: 452117, Corning, USA) were preincubated with test compound for 10 minutes at 37° C. in 100 mM potassium phosphate buffer, pH 7.4. The reactions were initiated by adding NADPH regenerating system. The final incubation mixtures contained 1 μM test compound, 0.5 mg/mL liver microsomal protein, 1 mM MgCl2, 1 mM NADP, 1 unit/mL isocitric dehydrogenase and 6 mM isocitric acid in 100 mM potassium phosphate buffer, pH 7.4. After incubation times of 0, 3, 6, 9, 15 and 30 minutes at 37° C., 300 μL of cold ACN (including internal standard) was added to 100 μL incubation mixture to terminate the reaction. Following precipitation and centrifugation, 100 uL supernatant will be taken out and added 300 uL water. The amount of compound remaining in the samples was determined by LC-MS/MS. Controls of no NADPH regenerating system at zero and 30 minutes were also prepared and analyzed. The results were categorized as: low (7.0 mL/min/kg), medium (7.0-16.2 mL/min/kg) and high (16.2-23.2 mL/min/kg).

## N#Cc1ccc(N2CCN3Cc4cc(N5CCNCC5)ncc4C3C2)c2cccnc12 (centres unmarked) [Example 1, 5-(11-Piperazin-1-yl-4,7,12-triazatricyclo[7.4.0.02,7]trideca-1(9),10,12-trien-4-yl)quinoline-8-carbonitrile]
  CL (h): 6.2 mL/min/kg

## CC1(N)CCN(c2ccc3c(n2)CN2CCN(c4ccc(C#N)c5ncccc45)C[C@H]32)CC1 [Example 4B, 5-[(2S)-11-(4-amino-4-methyl-1-piperidyl)-4,7,10-triazatricyclo[7.4.0.02,7]trideca-1(9),10,12-trien-4-yl]quinoline-8-carbonitrile]
  CL (h): 8.1 mL/min/kg
